Experimental data published in ChEMBL document CHEMBL1201862, “PubChem BioAssay data set” (2004).
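Following 48 hours of exposure in 96-well plates, responses at five concentrations were used to interpolate endpoints linearly. GI50 marks 50% less growth.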 Calls of active or inactive are those of the source. No stated cut-off is given here; in the data, active = GI50 up to about 1.1 µM and inactive = higher.

What was measured:
Assay in all cases: NCI-60 cell line screen, 48 h
SR = system: SR
COLO 205 = system: COLO 205
MDA-MB-231 = system: MDA-MB-231
MOLT-4 = system: MOLT-4
SK-OV-3 = system: SK-OV-3
NCI/ADR-RES = system: NCI/ADR-RES
SW-620 = system: SW-620
M14 = system: M14
SF-295 = system: SF-295
SK-MEL-2 = system: SK-MEL-2
HT-29 = system: HT-29
SNB-75 = system: SNB-75
SF-539 = system: SF-539
SK-MEL-28 = system: SK-MEL-28
MDA-N = system: MDA-N
IGROV-1 = system: IGROV-1
TK-10 = system: TK-10
BT-549 = system: BT-549
MDA-MB-435 = system: MDA-MB-435
RPMI-8226 = system: RPMI-8226
PC-3 = system: PC-3
EKVX = system: EKVX
Hs-578T = system: Hs-578T
ACHN = system: ACHN
SF-268 = system: SF-268
Malme-3M = system: Malme-3M
HOP-62 = system: HOP-62
SNB-19 = system: SNB-19
KM12 = system: KM12
U-251 = system: U-251
SN12C = system: SN12C
LOX IMVI = system: LOX IMVI
T47D = system: T47D
HCC 2998 = system: HCC 2998
A498 = system: A498
NCI-H226 = system: NCI-H226
HL-60 = system: HL-60
UACC-257 = system: UACC-257
MCF7 = system: MCF7
UO-31 = system: UO-31
A549 = system: A549
CCRF-CEM = system: CCRF-CEM
HCT-116 = system: HCT-116
K562 = system: K562
786-0 = system: 786-0
DU-145 = system: DU-145
OVCAR-5 = system: OVCAR-5
OVCAR-4 = system: OVCAR-4
OVCAR-3 = system: OVCAR-3
RXF 393 = system: RXF 393
OVCAR-8 = system: OVCAR-8
NCI-H460 = system: NCI-H460
UACC-62 = system: UACC-62
HCT-15 = system: HCT-15
NCI-H522 = system: NCI-H522
SK-MEL-5 = system: SK-MEL-5
NCI-H23 = system: NCI-H23
CAKI-1 = system: CAKI-1
HOP-92 = system: HOP-92

With `O=C1c2ccccc2CC12Cc1ccc3c(c1C2=O)CCCC3` (stereo unspecified) the GI50 (SR) was 2.87 µM (inactive), the GI50 (COLO 205) was 13 µM (inactive) and the GI50 (MDA-MB-231) was 0.948 µM (active). For the same compound, the GI50 (MOLT-4) was 4.35 µM (inactive), the GI50 (SK-OV-3) was > 100 µM (inactive) and the GI50 (NCI/ADR-RES) was 7.06 µM (inactive). The GI50 (SW-620) was 6.32 µM (inactive), the GI50 (M14) was 8.61 µM (inactive) and the GI50 (SF-295) was 5.96 µM (inactive). For the same compound, the GI50 (SK-MEL-2) was > 100 µM (inactive), the GI50 (HT-29) was 6.49 µM (inactive) and the GI50 (SNB-75) was 6.52 µM (inactive). For the same compound, the GI50 (SF-539) was 4.89 µM (inactive), the GI50 (SK-MEL-28) was 47.2 µM (inactive) and the GI50 (MDA-N) was 6.35 µM (inactive). The GI50 (IGROV-1) was 4.71 µM (inactive), the GI50 (TK-10) was > 100 µM (inactive) and the GI50 (BT-549) was > 100 µM (inactive). For the same compound, the GI50 (MDA-MB-435) was 21.7 µM (inactive), the GI50 (RPMI-8226) was 18.2 µM (inactive) and the GI50 (PC-3) was 66.7 µM (inactive). The GI50 (EKVX) was > 100 µM (inactive), the GI50 (Hs-578T) was 0.491 µM (active) and the GI50 (ACHN) was 7.83 µM (inactive). The GI50 (SF-268) was > 100 µM (inactive), the GI50 (Malme-3M) was 82.2 µM (inactive) and the GI50 (HOP-62) was 7.74 µM (inactive). The GI50 (SNB-19) was 20.7 µM (inactive), the GI50 (KM12) was 41.4 µM (inactive) and the GI50 (U-251) was 35.2 µM (inactive). The GI50 (SN12C) was 14.1 µM (inactive), the GI50 (LOX IMVI) was 19.9 µM (inactive) and the GI50 (T47D) was 1.39 µM (inactive). For the same compound, the GI50 (HCC 2998) was > 100 µM (inactive), the GI50 (A498) was 23.7 µM (inactive) and the GI50 (NCI-H226) was 24 µM (inactive). For the same compound, the GI50 (HL-60) was 16.8 µM (inactive), the GI50 (UACC-257) was > 100 µM (inactive) and the GI50 (MCF7) was > 100 µM (inactive). The GI50 (UO-31) was 9.27 µM (inactive), the GI50 (A549) was 8.05 µM (inactive) and the GI50 (CCRF-CEM) was 49 µM (inactive). The GI50 (HCT-116) was 3.57 µM (inactive), the GI50 (K562) was 21.6 µM (inactive) and the GI50 (786-0) was 7.85 µM (inactive). For the same compound, the GI50 (DU-145) was > 100 µM (inactive), the GI50 (OVCAR-5) was > 100 µM (inactive) and the GI50 (OVCAR-4) was 3.29 µM (inactive). The GI50 (OVCAR-3) was 12.6 µM (inactive), the GI50 (RXF 393) was 4.13 µM (inactive) and the GI50 (OVCAR-8) was 26 µM (inactive). For the same compound, the GI50 (NCI-H460) was 3.91 µM (inactive), the GI50 (UACC-62) was 8.2 µM (inactive) and the GI50 (HCT-15) was 5.13 µM. For the same compound, the GI50 (NCI-H522) was 5.21 µM (inactive) and the GI50 (SK-MEL-5) was 6.19 µM (inactive).

For `O=C(O)c1cc(-c2ccc3cc(O)c(O)cc3c2)ccc1O`, the GI50 (SR) was > 12.5 µM (inactive), the GI50 (COLO 205) was > 12.5 µM (inactive) and the GI50 (MDA-MB-231) was > 12.5 µM (inactive). For the same compound, the GI50 (MOLT-4) was > 12.5 µM (inactive), the GI50 (SK-OV-3) was > 12.5 µM (inactive) and the GI50 (NCI-H23) was > 12.5 µM (inactive). For the same compound, the GI50 (NCI/ADR-RES) was > 12.5 µM (inactive), the GI50 (SW-620) was > 12.5 µM (inactive) and the GI50 (M14) was > 12.5 µM (inactive). For the same compound, the GI50 (SF-295) was > 12.5 µM (inactive), the GI50 (SK-MEL-2) was > 12.5 µM (inactive) and the GI50 (HT-29) was > 12.5 µM (inactive). The GI50 (SNB-75) was 4.94 µM (inactive), the GI50 (SF-539) was > 12.5 µM (inactive) and the GI50 (SK-MEL-28) was > 12.5 µM (inactive). For the same compound, the GI50 (MDA-N) was 3.88 µM (inactive), the GI50 (IGROV-1) was > 12.5 µM (inactive) and the GI50 (TK-10) was > 12.5 µM (inactive). For the same compound, the GI50 (BT-549) was > 12.5 µM (inactive), the GI50 (MDA-MB-435) was 5.73 µM (inactive) and the GI50 (PC-3) was > 12.5 µM (inactive). The GI50 (Hs-578T) was > 12.5 µM (inactive), the GI50 (ACHN) was > 12.5 µM (inactive) and the GI50 (CAKI-1) was > 12.5 µM (inactive). For the same compound, the GI50 (SF-268) was > 12.5 µM (inactive), the GI50 (Malme-3M) was > 12.5 µM (inactive) and the GI50 (HOP-62) was > 12.5 µM (inactive). For the same compound, the GI50 (SNB-19) was > 12.5 µM (inactive), the GI50 (KM12) was > 12.5 µM (inactive) and the GI50 (U-251) was > 12.5 µM (inactive). The GI50 (SN12C) was > 12.5 µM (inactive), the GI50 (T47D) was > 12.5 µM (inactive) and the GI50 (A498) was > 12.5 µM (inactive). For the same compound, the GI50 (NCI-H226) was > 12.5 µM (inactive), the GI50 (HL-60) was > 12.5 µM (inactive) and the GI50 (UACC-257) was > 12.5 µM (inactive). For the same compound, the GI50 (MCF7) was > 12.5 µM (inactive), the GI50 (UO-31) was > 12.5 µM (inactive) and the GI50 (A549) was > 12.5 µM (inactive). For the same compound, the GI50 (CCRF-CEM) was > 12.5 µM (inactive), the GI50 (HCT-116) was > 12.5 µM (inactive) and the GI50 (K562) was > 12.5 µM (inactive). For the same compound, the GI50 (786-0) was > 12.5 µM (inactive), the GI50 (DU-145) was > 12.5 µM (inactive) and the GI50 (OVCAR-5) was > 12.5 µM (inactive). The GI50 (OVCAR-3) was > 12.5 µM (inactive), the GI50 (OVCAR-8) was > 12.5 µM (inactive) and the GI50 (NCI-H460) was > 12.5 µM (inactive). The GI50 (UACC-62) was > 12.5 µM (inactive), the GI50 (HCT-15) was greater than 12.5 µM and the GI50 (NCI-H522) was > 12.5 µM (inactive). For the same compound, the GI50 (SK-MEL-5) was > 12.5 µM (inactive).

For `CN(C)C(=O)CO/N=C1/C(=C2/C(=O)Nc3ccccc32)Nc2ccccc21`, the GI50 (SR) was 88.7 µM (inactive), the GI50 (COLO 205) was 31.6 µM (inactive) and the GI50 (MDA-MB-231) was > 100 µM (inactive). The GI50 (MOLT-4) was > 100 µM (inactive), the GI50 (SK-OV-3) was > 100 µM (inactive) and the GI50 (NCI-H23) was > 100 µM (inactive). The GI50 (NCI/ADR-RES) was > 100 µM (inactive), the GI50 (SW-620) was > 100 µM (inactive) and the GI50 (M14) was 97.3 µM (inactive). The GI50 (SF-295) was 39.9 µM (inactive), the GI50 (SK-MEL-2) was > 100 µM (inactive) and the GI50 (HT-29) was > 100 µM (inactive). The GI50 (SNB-75) was 30.4 µM (inactive), the GI50 (SF-539) was 39.3 µM (inactive) and the GI50 (SK-MEL-28) was > 100 µM (inactive). For the same compound, the GI50 (MDA-N) was > 100 µM (inactive), the GI50 (IGROV-1) was > 100 µM (inactive) and the GI50 (TK-10) was 40.9 µM (inactive). The GI50 (BT-549) was 65.9 µM (inactive), the GI50 (MDA-MB-435) was > 100 µM (inactive) and the GI50 (RPMI-8226) was > 100 µM (inactive). The GI50 (PC-3) was > 100 µM (inactive), the GI50 (EKVX) was > 100 µM (inactive) and the GI50 (Hs-578T) was > 100 µM (inactive). For the same compound, the GI50 (HOP-92) was > 100 µM (inactive), the GI50 (ACHN) was > 100 µM (inactive) and the GI50 (CAKI-1) was 4.69 µM (inactive). The GI50 (SF-268) was > 100 µM (inactive), the GI50 (Malme-3M) was > 100 µM (inactive) and the GI50 (HOP-62) was 18.7 µM (inactive). The GI50 (SNB-19) was > 100 µM (inactive), the GI50 (KM12) was 0.032 µM (active) and the GI50 (U-251) was 26.6 µM (inactive). For the same compound, the GI50 (SN12C) was > 100 µM (inactive), the GI50 (LOX IMVI) was > 100 µM (inactive) and the GI50 (T47D) was > 100 µM (inactive). For the same compound, the GI50 (HCC 2998) was > 100 µM (inactive), the GI50 (NCI-H226) was > 100 µM (inactive) and the GI50 (HL-60) was > 100 µM (inactive). The GI50 (UACC-257) was > 100 µM (inactive), the GI50 (MCF7) was > 100 µM (inactive) and the GI50 (UO-31) was > 100 µM (inactive). The GI50 (A549) was > 100 µM (inactive), the GI50 (CCRF-CEM) was > 100 µM (inactive) and the GI50 (HCT-116) was 94.8 µM (inactive). For the same compound, the GI50 (K562) was > 100 µM (inactive), the GI50 (786-0) was 64.7 µM (inactive) and the GI50 (DU-145) was > 100 µM (inactive). The GI50 (OVCAR-5) was > 100 µM (inactive), the GI50 (OVCAR-4) was > 100 µM (inactive) and the GI50 (OVCAR-3) was > 100 µM (inactive). For the same compound, the GI50 (RXF 393) was 17.7 µM (inactive), the GI50 (OVCAR-8) was > 100 µM (inactive) and the GI50 (NCI-H460) was > 100 µM (inactive). For the same compound, the GI50 (UACC-62) was > 100 µM (inactive), the GI50 (HCT-15) was greater than 100 µM and the GI50 (NCI-H522) was > 100 µM (inactive). The GI50 (SK-MEL-5) was 37.3 µM (inactive).
